# Several values for one entry are separate records, joined by “and”; a condition that tells them apart may be missing. Equal entries are not always repeated.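 Where inhibition never reached the appropriate level, the endpoint shown equals the highest concentration tested. Otherwise, values were interpolated linearly from a five-concentration, 48-hour dose response in 96-well plates. GI50 is the concentration that inhibits growth by half. TGI is the concentration that stops growth completely.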
# Assays:
# Assay in all cases: NCI anticancer screen, dose series, 48 h
# DMS 114 small cell lung = tested on: DMS 114 small cell lung
# NCI-H522 lung = tested on: NCI-H522 lung
# DMS 273 small cell lung = tested on: DMS 273 small cell lung
# M19-MEL melanoma = tested on: M19-MEL melanoma
# DLD-1 colon = tested on: DLD-1 colon
# SNB-78 CNS = tested on: SNB-78 CNS
# XF 498 CNS = tested on: XF 498 CNS
# LXFL 529 NSCLC = tested on: LXFL 529 NSCLC
# MALME-3M melanoma = tested on: MALME-3M melanoma
# KM20L2 colon = tested on: KM20L2 colon
# HOP-18 NSCLC = tested on: HOP-18 NSCLC
# MDA-MB-231 breast = tested on: MDA-MB-231 breast
# NCI/ADR-RES ovarian = tested on: NCI/ADR-RES ovarian
Structure (SMILES),TGI (NCI-H522 lung),TGI (MALME-3M melanoma),TGI (MDA-MB-231 breast),TGI (NCI/ADR-RES ovarian),also measured
O=C1CCCCCCCCCCC1CN1CCCCC1 (configuration not stated),> 100 µM,> 100 µM,–,–,TGI (DMS 114 small cell lung): > 100 µM; TGI (DMS 273 small cell lung): > 100 µM; TGI (M19-MEL melanoma): > 100 µM; TGI (DLD-1 colon): > 100 µM; TGI (SNB-78 CNS): > 100 µM; TGI (XF 498 CNS): > 100 µM; TGI (LXFL 529 NSCLC): > 100 µM; TGI (KM20L2 colon): > 100 µM
CC(C)(C)C(=O)OC12/C(=N/O)CCCCCC1c1ccccc12 (configuration not stated),35 µM,37.4 µM,–,–,TGI (DMS 114 small cell lung): 35.4 µM; TGI (DMS 273 small cell lung): 34.3 µM; TGI (M19-MEL melanoma): 30.2 µM; TGI (DLD-1 colon): 34.6 µM; TGI (SNB-78 CNS): 46.6 µM; TGI (LXFL 529 NSCLC): 30.3 µM; TGI (HOP-18 NSCLC): 34 µM; TGI (KM20L2 colon): 36.5 µM
Cc1cc(=O)oc2c(C)c(OCCCOc3ccc4c(C)cc(=O)oc4c3C)ccc12,> 100 µM,> 100 µM,–,–,TGI (DMS 114 small cell lung): > 100 µM; TGI (DMS 273 small cell lung): > 100 µM; TGI (M19-MEL melanoma): > 100 µM; TGI (DLD-1 colon): > 100 µM; TGI (SNB-78 CNS): > 100 µM; TGI (XF 498 CNS): > 100 µM; TGI (LXFL 529 NSCLC): > 100 µM; TGI (HOP-18 NSCLC): > 100 µM; TGI (KM20L2 colon): > 100 µM
CC(=O)OC1COC(Nc2nc(NCc3ccccc3)n(C)c(=O)c2N=O)C(OC(C)=O)C1OC(C)=O (configuration not stated),> 10 µM,> 10 µM,> 10 µM,> 10 µM,–
CCCCCCCCCCC1OC([C@@H](O)CC[C@H](O)C2CC[C@@H](CCCCCCCC(O)CC3=CC(C)OC3=O)O2)CCC1O (some centres not stated),> 25 µM,> 25 µM,> 25 µM,> 25 µM,GI50 (MDA-MB-231 breast): 5.88 µM; GI50 (NCI/ADR-RES ovarian): 6.4 µM
O=C(N/N=C1/C(=O)c2c3ccccc3cc3cccc1c23)c1ccccc1,> 100 µM,68.5 µM,> 100 µM,> 100 µM,–
CC1OC(OC2C(OC(=O)[C@]34CCC(C)(C)C[C@H]3C3=CC[C@@H]5[C@@]6(C)CC[C@H](OC7OC(C(=O)O)C(O)C(OC8OCC(O)C(O)C8O)C7O)C(C)(C)[C@@H]6CC[C@@]5(C)[C@]3(C)CC4)OCC(O)C2O)C(O)C(OC2OCC(O)C(O)C2O)C1OC1OCC(O)C(OC2OCC(O)C(O)C2O)C1O (some centres not stated),7.93 µM and 25.9 µM,25.7 µM and 91 µM,14.2 µM and 12.9 µM,24.4 µM and 67.7 µM,GI50 (NCI-H522 lung): 2.53 µM and 12.3 µM; GI50 (MALME-3M melanoma): 10.6 µM and 28.6 µM
CCOC(=O)C(Cc1cccn1C(=O)OC(C)(C)C)[N+](=O)[O-] (configuration not stated),40.8 µM,75.4 µM,44.7 µM,> 100 µM,–
CC(C)C1=CC23CCC4C(C)(C(=O)O)CCCC4(C)C2CC1C1C(=O)N(c2ccccc2)C(=O)C13 (configuration not stated),> 100 µM,> 100 µM,–,–,TGI (DMS 114 small cell lung): > 100 µM; TGI (DMS 273 small cell lung): > 100 µM; TGI (M19-MEL melanoma): > 100 µM; TGI (DLD-1 colon): > 100 µM; TGI (XF 498 CNS): > 100 µM; TGI (LXFL 529 NSCLC): > 100 µM; TGI (HOP-18 NSCLC): > 100 µM; TGI (KM20L2 colon): > 100 µM
CC(C)=CCC/C(C)=C/CC/C(C)=C/CC/C(=C/CC/C(C)=C\CC/C(C)=C/CC/C(C)=C/CC/C(C)=C/Cc1cc(O)ccc1O)CO,6.26 µM,6.37 µM,> 78.8 µM,19.4 µM,–
O=C(N/N=C(/COc1ccc([N+](=O)[O-])cc1)N=Cc1ccncc1)c1ccncc1,> 100 µM,> 100 µM,> 100 µM,> 100 µM,–
COc1ccc(OC)c(NS(=O)(=O)c2ccc3nc(C)n(NS(=O)(=O)c4cc(OC)ccc4OC)c(=O)c3c2)c1,> 100 µM,> 100 µM,> 100 µM,> 100 µM,–
CC(C)C(/C=C/c1ccc(Cl)c(Cl)c1)=N\NC(=O)N/N=C(/C=C/c1ccc(Cl)c(Cl)c1)C(C)C,> 100 µM,> 100 µM,> 100 µM,> 100 µM,–
Nc1nn2c(nc(N)c3c(N)[nH]nc32)c1N=Nc1ccc(Br)cc1,76.9 µM,18.4 µM,1.87 µM,> 100 µM,–
COc1cc2cc(C(=O)N3CC(CCl)c4c3cc(N)c3ccccc43)[nH]c2c(OC)c1OC (configuration not stated),< 0.01 µM,< 0.01 µM,0.519 µM,< 0.01 µM,–
CCCCON1C[C@H](OC(C)=O)C(OC(C)=O)[C@H](OC(C)=O)C1 (some centres not stated),> 100 µM,> 100 µM,> 100 µM,> 100 µM,–
O=C(O)Cc1ccc2[nH]c(O)c(C3=Nc4ccccc4C3=O)c2c1,> 100 µM,> 100 µM,> 100 µM,> 100 µM,–
O=C(CNc1ccccc1[N+](=O)[O-])Nn1c(-c2ccccc2)nc2ccccc2c1=O,> 10 µM,40.6 µM,29.1 µM,64.3 µM,–
O=C1OC(=O)c2cc(S(=O)(=O)c3ccc4c(c3)C(=O)OC4=O)ccc21,> 100 µM,> 100 µM,> 100 µM,> 100 µM,–
O=[N+]([O-])c1ccc(C=NCC2CCCN3CCCCC23)cc1 (configuration not stated),> 100 µM,> 100 µM,> 100 µM,> 100 µM,–
CC(=O)OCC1OC(Oc2cc(C)c(O)cc2C/C=C(\C)CC/C=C(\C)CC(=O)CC(C)C)C(O)C(OC(C)=O)C1OC(C)=O (configuration not stated),> 50 µM,> 50 µM,31.1 µM,31.9 µM,–
CCOC(=O)C(NC(=O)c1ccccc1)(N1CCOCC1)C(F)(F)F (configuration not stated),> 100 µM,> 100 µM,> 100 µM,> 100 µM,–

# Reference: PubChem BioAssay (NCI)
